The results in this text go back to ChEMBL document CHEMBL1142425, “Bromophenols from the marine red alga Polysiphonia urceolata with DPPH radical scavenging activity” (J Nat Prod, 2008).

Molecules are shown by their SMILES.

This test can be described thus: DPPH radical scavenging activity. The class given is functional.
For `O=Cc1cc(Br)c(O)c(Br)c1`, 35.8 µM corresponded to half-maximal inhibition (IC50).

`Oc1cc2c(c(Br)c1O)COCc1cc(O)c(O)c(Br)c1-2` gave an IC50 of 8.1 µM.

The compound `Oc1cc2c(cc1O)-c1c(cc(Br)c(O)c1O)CC2` yielded an IC50 of 6.8 µM.

Take `O=Cc1cc(O)c(O)c(Br)c1`: the IC50 is 20.3 µM.

`Oc1cc2c(c(Br)c1O)-c1c(cc(Br)c(O)c1O)CC2`: the midpoint of inhibition, the IC50, lay at 6.1 µM.

`Cc1cc(C(C)(C)C)c(O)c(C(C)(C)C)c1` [BUTYLATED HYDROXYTOLUENE] yielded an IC50 of 83.8 µM.

Compound `CO[C@@H]1Oc2c(O)c(Br)cc3c2-c2c1cc(Br)c(O)c2O[C@H]3OC` [URCEOLATOL] returned an IC50 of 15.1 µM.
